Key:
[1] = target: D(2) dopamine receptor (Rattus norvegicus, UniProt P61169)
[2] = target: 5-hydroxytryptamine receptor 2A (Rattus norvegicus, UniProt P14842)
Sequence of 5-hydroxytryptamine receptor 2A (P14842 whole entry): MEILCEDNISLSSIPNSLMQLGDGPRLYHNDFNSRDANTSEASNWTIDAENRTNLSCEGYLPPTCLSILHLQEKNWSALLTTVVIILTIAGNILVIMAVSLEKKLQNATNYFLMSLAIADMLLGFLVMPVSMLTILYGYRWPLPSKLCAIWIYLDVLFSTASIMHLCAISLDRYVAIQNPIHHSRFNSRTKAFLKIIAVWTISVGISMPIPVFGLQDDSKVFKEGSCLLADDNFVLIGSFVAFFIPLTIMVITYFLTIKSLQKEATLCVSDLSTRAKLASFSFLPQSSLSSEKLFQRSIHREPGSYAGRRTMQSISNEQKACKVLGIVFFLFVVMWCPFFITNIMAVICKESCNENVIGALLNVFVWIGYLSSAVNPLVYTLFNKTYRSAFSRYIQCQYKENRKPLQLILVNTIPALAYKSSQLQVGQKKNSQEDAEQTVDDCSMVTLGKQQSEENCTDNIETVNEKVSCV

Sequence of D(2) dopamine receptor (P61169 whole entry): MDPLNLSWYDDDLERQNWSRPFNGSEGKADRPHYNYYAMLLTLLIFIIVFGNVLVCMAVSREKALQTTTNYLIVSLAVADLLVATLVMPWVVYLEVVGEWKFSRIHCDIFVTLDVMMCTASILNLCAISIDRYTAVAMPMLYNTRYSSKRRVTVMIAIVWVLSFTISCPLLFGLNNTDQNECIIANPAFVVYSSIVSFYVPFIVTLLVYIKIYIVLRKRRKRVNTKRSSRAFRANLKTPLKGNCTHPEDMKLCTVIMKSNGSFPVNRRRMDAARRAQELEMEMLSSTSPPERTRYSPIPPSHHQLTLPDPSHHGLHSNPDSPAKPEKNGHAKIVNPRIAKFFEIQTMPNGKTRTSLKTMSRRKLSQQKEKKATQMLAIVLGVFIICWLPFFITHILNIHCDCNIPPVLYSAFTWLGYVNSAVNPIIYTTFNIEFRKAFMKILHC

Cc1[nH]cnc1CC1CCc2c(C)c3ccccc3n2C1=O (configuration not stated) [CAS_125368]
Ki [1]: 0.01 nM | Ki [2]: 0.01 nM
